Experimental data: paper PMC3914206

Columns and labels:
Assay type in all cases: binding
[1] = molecular target: T1, panel of 442 kinases (Homo sapiens, UniProt O43353); details: Compound Concentration 10 µM
T1 construct: purchased KINOMEscan
Text: (§1) We assessed the selectivity of members of this scaffold using the KINOMEscan methodology across a near comprehensive panel of 442 kinases [[18,27]].

[2] = molecular target: T2, panel of 442 kinases (Homo sapiens, UniProt P42680); details: kinase TEC; compound concentration 10 µM
T2 construct: purchased KINOMEscan
T2 sequence (P42680 1-631): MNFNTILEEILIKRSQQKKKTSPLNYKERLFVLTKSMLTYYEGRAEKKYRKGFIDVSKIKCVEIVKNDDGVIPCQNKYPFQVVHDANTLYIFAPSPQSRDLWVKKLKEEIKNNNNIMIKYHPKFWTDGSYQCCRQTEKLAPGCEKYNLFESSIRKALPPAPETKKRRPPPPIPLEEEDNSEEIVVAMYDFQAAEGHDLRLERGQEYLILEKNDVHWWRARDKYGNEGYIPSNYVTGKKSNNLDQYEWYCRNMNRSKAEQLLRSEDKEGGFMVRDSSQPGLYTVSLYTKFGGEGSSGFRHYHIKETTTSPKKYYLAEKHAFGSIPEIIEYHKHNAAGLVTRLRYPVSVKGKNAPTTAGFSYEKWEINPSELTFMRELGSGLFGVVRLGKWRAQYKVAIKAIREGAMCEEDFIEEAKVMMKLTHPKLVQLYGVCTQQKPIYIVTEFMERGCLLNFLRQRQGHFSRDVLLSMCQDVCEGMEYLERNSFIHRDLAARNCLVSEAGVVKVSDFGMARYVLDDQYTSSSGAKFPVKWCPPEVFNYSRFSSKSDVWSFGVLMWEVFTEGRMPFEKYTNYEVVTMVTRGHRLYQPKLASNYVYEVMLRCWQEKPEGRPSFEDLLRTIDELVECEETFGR
Text: as §1

[3] = molecular target: T3, panel of 442 kinases (Homo sapiens, UniProt P31751); details: Compound Concentration 10 µM
T3 construct: purchased KINOMEscan
T3 sequence (P31751 whole entry): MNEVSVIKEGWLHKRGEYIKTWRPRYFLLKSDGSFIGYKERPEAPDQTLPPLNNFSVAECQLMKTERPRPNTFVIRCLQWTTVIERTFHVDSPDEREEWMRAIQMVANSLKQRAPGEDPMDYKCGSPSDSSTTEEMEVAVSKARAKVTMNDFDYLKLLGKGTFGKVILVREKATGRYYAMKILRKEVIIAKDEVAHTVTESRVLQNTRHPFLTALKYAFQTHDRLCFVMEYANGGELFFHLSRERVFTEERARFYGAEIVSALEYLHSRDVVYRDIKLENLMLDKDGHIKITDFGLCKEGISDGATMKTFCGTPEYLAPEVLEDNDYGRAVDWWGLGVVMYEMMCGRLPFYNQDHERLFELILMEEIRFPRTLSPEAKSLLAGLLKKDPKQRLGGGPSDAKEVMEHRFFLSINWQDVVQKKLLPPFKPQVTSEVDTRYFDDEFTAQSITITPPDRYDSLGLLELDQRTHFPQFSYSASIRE
Text: as §1

T1 sequence (O43353 whole entry): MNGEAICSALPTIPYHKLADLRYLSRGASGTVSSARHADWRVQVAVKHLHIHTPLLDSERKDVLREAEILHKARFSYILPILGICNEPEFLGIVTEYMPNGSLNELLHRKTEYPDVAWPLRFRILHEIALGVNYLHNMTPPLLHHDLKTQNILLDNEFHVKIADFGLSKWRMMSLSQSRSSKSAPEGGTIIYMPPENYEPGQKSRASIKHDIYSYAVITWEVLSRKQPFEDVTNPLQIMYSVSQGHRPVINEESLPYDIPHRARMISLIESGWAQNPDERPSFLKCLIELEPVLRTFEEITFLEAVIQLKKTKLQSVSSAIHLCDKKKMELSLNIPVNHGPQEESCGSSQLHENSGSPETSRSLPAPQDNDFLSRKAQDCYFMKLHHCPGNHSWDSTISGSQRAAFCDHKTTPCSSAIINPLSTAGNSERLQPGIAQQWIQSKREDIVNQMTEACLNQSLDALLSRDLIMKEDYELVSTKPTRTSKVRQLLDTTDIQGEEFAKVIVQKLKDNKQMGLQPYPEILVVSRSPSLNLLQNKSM

## COc1cc(C(=O)N2CCC(N3CCN(C)CC3)CC2)ccc1Nc1ncc2c(n1)N(C1CCCC1)c1ccccc1C(=O)N2C [Compound 25, 11-cyclopentyl-2-((2-methoxy-4-(4-(4-methylpiperazin-1-yl)piperidine-1-carbonyl)phenyl)amino)-5-methyl-5H-benzo[e]pyrimido[5,4-b][1,4]diazepin-6(11H)-one]
[1]
  KINOMEscan: RIPK2: 87
[2]
  % Ctrl, TEC: 91 % Ctrl
[3]
  KINOMEscan: AKT2: 100

## COc1cc(C(=O)N2CCC(N3CCN(C)CC3)CC2)ccc1Nc1ncc2c(n1)N1CCc3cccc(c31)C(=O)N2C [Compound 24]
[1]
  KINOMEscan: RIPK2: 95
[2]
  % Ctrl, TEC: 100 % Ctrl

## COc1cc(C(=O)N2CCC(N3CCN(C)CC3)CC2)ccc1Nc1ncc2c(n1)N(C)c1ccccc1C(=O)N2C [15 (LRRK2-IN-1)]
[1]
  KINOMEscan: RIPK2: 100
[2]
  % Ctrl, TEC: 100 % Ctrl
[3]
  KINOMEscan: AKT2: 100

## CCOc1cc(C(=O)N2CCC(N3CCN(C)CC3)CC2)ccc1Nc1ncc2c(n1)N(C1CCCC1)c1ccccc1C(=O)N2C [Compound 26]
[1]
  KINOMEscan: RIPK2: 100
[2]
  % Ctrl, TEC: 100 % Ctrl
[3]
  KINOMEscan: AKT2: 100
